From ChEMBL document CHEMBL5550087, “Development of tenofovir monobenzyl ester phosphonoamidate prodrugs with improved anti-hepatitis B virus activity and intrahepatic tenofovir enrichment” (Bioorg Med Chem, 2024)

Tests used:
[1] = Ratio of drug level in ICR mouse liver to plasma at 50 mg/kg, ig measured after 3 hrs by LC-MS/MS analysis; type: ADME, organism-based; conditions: liver and plasma, po
[2] = Drug metabolism in ICR mouse assessed as ratio of tenofovir metabolite level in liver to plasma at 50 mg/kg, ig measured after 3 hrs by LC-MS/MS analysis; type: ADME, organism-based; conditions: other tissue, po
[3] = Drug metabolism in ICR mouse liver assessed as ratio of tenofovir level to parent compound level at 50 mg/kg, ig measured after 3 hrs by LC-MS/MS analysis; type: ADME, organism-based; conditions: in vivo, po
[4] = Plasma concentration in ICR mouse at 50 mg/kg, ig measured after 3 hrs by LC-MS/MS analysis; type: ADME, organism-based; conditions: po
[5] = Drug metabolism in ICR mouse liver assessed as tenofovir metabolite level at 50 mg/kg, ig measured after 3 hrs by LC-MS/MS analysis; type: ADME, organism-based; conditions: in vivo, po
[6] = Drug metabolism in ICR mouse plasma assessed as ratio of tenofovir level to parent compound level at 50 mg/kg, ig measured after 3 hrs by LC-MS/MS analysis; type: ADME, organism-based; conditions: in vivo, po
[7] = Drug metabolism in ICR mouse plasma assessed as tenofovir metabolite level at 50 mg/kg, ig measured after 3 hrs by LC-MS/MS analysis; type: ADME, organism-based; conditions: in vivo, po
[8] = Drug uptake in ICR mouse liver at 50 mg/kg, ig measured after 3 hrs by LC-MS/MS analysis; type: ADME, organism-based; conditions: po, read-out: Drug uptake
[9] = Cytotoxicity against human HepG2.2.15 cells assessed as reduction in cell viability treated from day 2 to day 8 by CellTiter-Blue reagent based fluorescence analysis; type: toxicity, HepG2 2.2.15; conditions: time 6 day
Hepatitis B virus = test: Antiviral activity against Hepatitis B virus infected in human HepG2.2.15 cells assessed as inhibition of viral DNA replication treated from day 2 to day 8 by real time fluorescence qPCR analysis; type: functional, organism-based
[10] = Stability of the compound in simulated gastric fluid at 10 uM incubated at 37 degC for upto 1440 mins by LC-MS/MS analysis; type: ADME; conditions: simulated gi fluid, 24 h
[11] = Stability of the compound in simulated intestinal fluid at 10 uM incubated at 37 degC for upto 1440 mins by LC-MS/MS analysis; type: ADME; conditions: simulated gi fluid, 24 h
[12] = Drug metabolism in Sprague-Dawley rat assessed as terminal elimination half life of tenofovir metabolite at 25 mg/kg, ig measured for 24 hrs by LC-MS/MS analysis; type: ADME, organism-based; conditions: in vivo, po
[13] = Drug metabolism in Sprague-Dawley rat assessed as bioavailability of tenofovir metabolite at 25 mg/kg, ig measured for 24 hrs by LCMS/MS analysis; type: ADME, organism-based; conditions: in vivo, po
[14] = Drug metabolism in Sprague-Dawley rat kidney assessed as terminal elimination half life of tenofovir metabolite at 25 mg/kg, ig measured for 12 hrs by LC-MS/MS analysis; type: ADME, organism-based; conditions: in vivo, po
[15] = Drug metabolism in Sprague-Dawley rat assessed as clearance of tenofovir metabolite at 5 mg/kg, iv measured for 24 hrs by LC-MS/MS analysis; type: ADME, organism-based; conditions: in vivo
[16] = Drug metabolism in human liver S9 fraction assessed as tenofovir metabolite formation at 1 uM incubated for upto 60 mins by LC-MS/MS analysis; type: ADME, subcellular; conditions: s9, 1 h
[17] = Stability of the compound in human plasma at 2 uM incubated for upto 120 mins by LC-MS/MS analysis; type: ADME, cell-free; conditions: 2 h
[18] = Drug metabolism in Sprague-Dawley rat liver assessed as Tmax of tenofovir metabolite at 25 mg/kg, ig measured for 12 hrs by LC-MS/MS analysis; type: ADME, organism-based; conditions: in vivo, po
[19] = Mutagenicity in Salmonella typhimurium TA98 assessed as revertant colonies at 1.5 to 1000 ug/well incubated for 66.5 hrs in the dark by mini-Ames test; type: toxicity; conditions: salmonella enterica subsp. enterica serovar typhimurium, dose 1.5-1000 µg
[20] = Drug metabolism in Sprague-Dawley rat kidney assessed as Cmax of tenofovir metabolite at 25 mg/kg, ig measured for 12 hrs by LC-MS/MS analysis; type: ADME, organism-based; conditions: in vivo, po
[21] = Drug metabolism in Sprague-Dawley rat assessed as MRT(0 to t) of tenofovir metabolite at 5 mg/kg, iv measured for 24 hrs by LC-MS/MS analysis; type: ADME, organism-based; conditions: in vivo
[22] = Drug metabolism in Sprague-Dawley rat plasma assessed as terminal elimination half life of tenofovir metabolite at 25 mg/kg, ig measured for 12 hrs by LC-MS/MS analysis; type: ADME, organism-based; conditions: in vivo, po
[23] = biological target: Voltage-gated inwardly rectifying potassium channel KCNH2 (Homo sapiens, UniProt Q12809); test: Inhibition of hERG expressed in CHO cells assessed as inhibition of channel current measured at holding potential of -80 mV by whole cell patch clamp analysis; type: toxicity, cell-based
Chain of Voltage-gated inwardly rectifying potassium channel KCNH2 (Q12809 whole entry): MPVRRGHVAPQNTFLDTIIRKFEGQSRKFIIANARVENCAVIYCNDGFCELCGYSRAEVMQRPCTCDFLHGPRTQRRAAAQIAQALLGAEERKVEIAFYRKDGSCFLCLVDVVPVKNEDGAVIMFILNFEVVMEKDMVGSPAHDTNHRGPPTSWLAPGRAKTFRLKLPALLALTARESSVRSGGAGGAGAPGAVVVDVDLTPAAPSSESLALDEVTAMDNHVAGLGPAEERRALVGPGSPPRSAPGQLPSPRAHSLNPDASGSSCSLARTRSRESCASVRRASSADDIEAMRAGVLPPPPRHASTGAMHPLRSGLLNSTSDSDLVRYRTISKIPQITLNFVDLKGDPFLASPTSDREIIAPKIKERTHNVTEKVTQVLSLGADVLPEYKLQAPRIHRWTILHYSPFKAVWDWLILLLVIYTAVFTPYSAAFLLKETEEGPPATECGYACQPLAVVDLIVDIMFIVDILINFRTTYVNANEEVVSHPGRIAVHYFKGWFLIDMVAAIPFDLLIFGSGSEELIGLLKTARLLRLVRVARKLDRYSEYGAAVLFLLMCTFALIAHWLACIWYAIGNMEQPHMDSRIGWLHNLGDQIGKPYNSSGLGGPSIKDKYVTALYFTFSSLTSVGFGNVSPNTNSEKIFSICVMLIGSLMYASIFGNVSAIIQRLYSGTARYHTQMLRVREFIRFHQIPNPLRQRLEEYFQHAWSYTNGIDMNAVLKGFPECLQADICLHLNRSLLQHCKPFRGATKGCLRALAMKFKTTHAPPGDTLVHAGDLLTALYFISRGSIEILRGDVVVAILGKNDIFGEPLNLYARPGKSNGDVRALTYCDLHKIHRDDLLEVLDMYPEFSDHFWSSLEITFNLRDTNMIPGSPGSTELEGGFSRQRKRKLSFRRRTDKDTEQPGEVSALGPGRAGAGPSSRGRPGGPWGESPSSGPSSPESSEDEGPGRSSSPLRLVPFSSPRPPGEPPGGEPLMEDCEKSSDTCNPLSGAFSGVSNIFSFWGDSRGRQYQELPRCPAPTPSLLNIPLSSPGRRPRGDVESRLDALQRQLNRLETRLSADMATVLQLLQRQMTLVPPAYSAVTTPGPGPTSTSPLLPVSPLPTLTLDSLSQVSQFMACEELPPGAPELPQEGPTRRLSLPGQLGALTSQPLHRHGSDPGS

[24] = Drug metabolism in Sprague-Dawley rat plasma assessed as Cmax of tenofovir metabolite at 25 mg/kg, ig measured for 12 hrs by LC-MS/MS analysis; type: ADME, organism-based; conditions: in vivo, po
[25] = Mutagenicity in Salmonella typhimurium TA100 assessed as revertant colonies at 1.5 to 1000 ug/well incubated for 66.5 hrs in the dark in presence of S9 fraction by mini-Ames test; type: toxicity, subcellular; conditions: salmonella enterica subsp. enterica serovar typhimurium, s9, 66.5 h, dose 1.5-1000 µg
[26] = Drug metabolism in Sprague-Dawley rat kidney assessed as Tmax of tenofovir metabolite at 25 mg/kg, ig measured for 12 hrs by LC-MS/MS analysis; type: ADME, organism-based; conditions: in vivo, po
[27] = Drug metabolism in Sprague-Dawley rat assessed as Tmax of tenofovir metabolite at 25 mg/kg, ig measured for 24 hrs by LC-MS/MS analysis; type: ADME, organism-based; conditions: in vivo, po
[28] = Drug metabolism in Sprague-Dawley rat assessed as Cmax of tenofovir metabolite at 25 mg/kg, ig measured for 24 hrs by LC-MS/MS analysis; type: ADME, organism-based; conditions: in vivo, po
[29] = Drug metabolism in Sprague-Dawley rat plasma assessed as Tmax of tenofovir metabolite at 25 mg/kg, ig measured for 12 hrs by LC-MS/MS analysis; type: ADME, organism-based; conditions: in vivo, po
[30] = Mutagenicity in Salmonella typhimurium TA100 assessed as revertant colonies at 1.5 to 1000 ug/well incubated for 66.5 hrs in the dark by mini-Ames test; type: toxicity; conditions: salmonella enterica subsp. enterica serovar typhimurium, dose 1.5-1000 µg
[31] = Drug metabolism in Sprague-Dawley rat assessed as volume of distribution of tenofovir metabolite at 5 mg/kg, iv measured for 24 hrs by LC-MS/MS analysis; type: ADME, organism-based; conditions: in vivo
[32] = Drug metabolism in Sprague-Dawley rat assessed as terminal elimination half life of tenofovir metabolite at 5 mg/kg, iv measured for 24 hrs by LC-MS/MS analysis; type: ADME, organism-based; conditions: in vivo
[33] = Drug metabolism in Sprague-Dawley rat liver assessed as Cmax of tenofovir metabolite at 25 mg/kg, ig measured for 12 hrs by LC-MS/MS analysis; type: ADME, organism-based; conditions: in vivo, po
[34] = Drug metabolism in Sprague-Dawley rat liver assessed as terminal elimination half life of tenofovir metabolite at 25 mg/kg, ig measured for 12 hrs by LC-MS/MS analysis; type: ADME, organism-based; conditions: in vivo, po
[35] = Mutagenicity in Salmonella typhimurium TA98 assessed as revertant colonies at 1.5 to 1000 ug/well incubated for 66.5 hrs in the dark in presence of S9 fraction by mini-Ames test; type: toxicity, subcellular; conditions: salmonella enterica subsp. enterica serovar typhimurium, s9, 66.5 h, dose 1.5-1000 µg

With `CC(C)OC(=O)[C@H](C)NP(=O)(CO[C@H](C)Cn1cnc2c(N)ncnc21)OCc1ccccc1` (some centres not stated) the Kp at 3 h [1] was 3.61, the Ratio [2] was 896 and the Ratio [3] was 166. It also gave a concentration at 3 h [4] of 104 nM, a Drug metabolism [5] of 67.251 nmol/mL and a Ratio [6] of 0.72. For the same compound, the Drug metabolism [7] was 0.075 nmol/mL and the concentration at 3 h [8] was 375 nM.

`CC(C)OC(=O)CNP(=O)(CO[C@H](C)Cn1cnc2c(N)ncnc21)OCc1ccccc1` (single isomer, unassigned; 1a) gave a CC50 at 144 h [9] of over 100 µM and an EC50 (Hepatitis B virus) of over 1000 nM.

`CC(C)OC(=O)CNP(=O)(CO[C@H](C)Cn1cnc2c(N)ncnc21)OCc1ccccc1` (single isomer, unassigned; 1b) gave a CC50 at 144 h [9] of over 100 µM and an EC50 (Hepatitis B virus) of 290 nM.

Compound `COC(=O)CNP(=O)(CO[C@H](C)Cn1cnc2c(N)ncnc21)OCc1ccccc1` (single isomer, unassigned; 2a) has a CC50 at 144 h [9] of over 100 µM and an EC50 (Hepatitis B virus) of 418 nM.

`COC(=O)CNP(=O)(CO[C@H](C)Cn1cnc2c(N)ncnc21)OCc1ccccc1` (single isomer, unassigned; 2b) gave a CC50 at 144 h [9] of over 100 µM and an EC50 (Hepatitis B virus) of over 1000 nM.

For `CC(C)OC(=O)[C@H](C)NP(=O)(CO[C@H](C)Cn1cnc2c(N)ncnc21)OCc1ccccc1` (single isomer, unassigned; 3a), the Stability [10] was “Stable”, the Stability [11] was “Stable” and the t1/2 [12] was 10.7 h. For the same compound, the F [13] was 32.7%, the t1/2 [14] was 322 h and the CL [15] was 20.9 L/h/kg. For the same compound, the Drug metabolism [16] was “Metabolite_Detected”, the Stability [17] was “Stable” and the Tmax [18] was 15 min. For the same compound, the CC50 at 144 h [9] was over 100 µM, the Activity [19] was “Non-Toxic” and the Cmax [20] was 3234 ng/mL. For the same compound, the “MRT(t)” value [21] was 55.3 min, the t1/2 [22] was 6.58 h and the IC50 [23] was over 10 µM. For the same compound, the Cmax [24] was 279 ng/mL, the Activity [25] was “Non-Toxic” and the Tmax [26] was 15 min. For the same compound, the Tmax [27] was 8.82 min, the Cmax [28] was 98.35 ng/mL and the Tmax [29] was 15 min. For the same compound, the Activity [30] was “Non-Toxic”, the Vd [31] was 86.6 L/kg and the t1/2 [32] was 2.89 h. The Cmax [33] was 10589 ng/mL, the t1/2 [34] was 6.77 h and the EC50 (Hepatitis B virus) was 3.39 nM. For the same compound, the Activity [35] was “Non-Toxic”.

With `CC(C)OC(=O)[C@H](C)NP(=O)(CO[C@H](C)Cn1cnc2c(N)ncnc21)OCc1ccccc1` (single isomer, unassigned; 3b) the Stability [10] was “Stable”, the Stability [11] was “Stable” and the t1/2 [12] was 2.84 h. For the same compound, the F [13] was 31.5%, the t1/2 [14] was 26.2 h and the CL [15] was 26.1 L/h/kg. The Drug metabolism [16] was “Metabolite_Detected”, the Stability [17] was “Stable” and the Tmax [18] was 15 min. The CC50 at 144 h [9] was over 100 µM, the Activity [19] was “Non-Toxic” and the Cmax [20] was 4663 ng/mL. For the same compound, the “MRT(t)” value [21] was 29.3 min, the t1/2 [22] was 6.56 h and the IC50 [23] was over 30 µM. The Cmax [24] was 216 ng/mL, the Activity [25] was “Non-Toxic” and the Tmax [26] was 15 min. The Tmax [27] was 22.5 min, the Cmax [28] was 143 ng/mL and the Tmax [29] was 15 min. The Activity [30] was “Non-Toxic”, the Vd [31] was 67.4 L/kg and the t1/2 [32] was 2 h. It also gave a Cmax [33] of 10557 ng/mL, a t1/2 [34] of 10.7 h and an EC50 (Hepatitis B virus) of 6 nM. The Activity [35] was “Non-Toxic”.

Compound `C[C@H](Cn1cnc2c(N)ncnc21)OCP(=O)(NCC(=O)Oc1ccccc1)OCc1ccccc1` (single isomer, unassigned; 4a) has a CC50 at 144 h [9] of over 100 µM and an EC50 (Hepatitis B virus) of 214 nM.

`C[C@H](Cn1cnc2c(N)ncnc21)OCP(=O)(NCC(=O)Oc1ccccc1)OCc1ccccc1` (single isomer, unassigned; 4b) showed a CC50 at 144 h [9] of over 100 µM and an EC50 (Hepatitis B virus) of 848 nM.

In the case of `Cc1ccccc1COP(=O)(CO[C@H](C)Cn1cnc2c(N)ncnc21)N[C@@H](C)C(=O)OC(C)C` (single isomer, unassigned; 5a), the CC50 at 144 h [9] is reported as over 100 µM and the EC50 (Hepatitis B virus) is reported as over 1000 nM.

`Cc1ccccc1COP(=O)(CO[C@H](C)Cn1cnc2c(N)ncnc21)N[C@@H](C)C(=O)OC(C)C` (single isomer, unassigned; 5b) gave a CC50 at 144 h [9] of over 100 µM, an IC50 [23] of over 10 µM and an EC50 (Hepatitis B virus) of 275 nM.

Compound `CC(C)OC(=O)[C@H](C)N[P@](=O)(CO[C@H](C)Cn1cnc2c(N)ncnc21)Oc1ccccc1` [TENOFOVIR ALAFENAMIDE] has a t1/2 [12] of 5.46 h, an F [13] of 27.7% and a t1/2 [14] of 5.2 h. For the same compound, the CL [15] was 2.57 L/h/kg, the Drug metabolism [16] was “Metabolite_Detected” and the Tmax [18] was 15 min. The CC50 at 144 h [9] was over 100 µM, the Cmax [20] was 16471 ng/mL and the “MRT(t)” value [21] was 100 min. The t1/2 [22] was 4.44 h, the IC50 [23] was over 10 µM and the Cmax [24] was 4027 ng/mL. It also gave a Tmax [26] of 15 min, a Tmax [27] of 22.5 min and a Cmax [28] of 1370 ng/mL. It also gave a Tmax [29] of 15 min, a Vd [31] of 16.1 L/kg and a t1/2 [32] of 4.59 h. It also gave a Cmax [33] of 29820 ng/mL, a t1/2 [34] of 6.2 h and an EC50 (Hepatitis B virus) of 17.8 nM.
